# Test results taken from US20230133657A1, “THE USE OF MENTHOL FOR THE PREPARATION OF A TOPICAL COMPOSITION TO IMPROVE NEURODEGENERATIVE DISEASE AND STROKE” (CHINA MEDICAL UNIVERSITY, priority 2020, published 2023).
# What was measured:
# [1] = system: Parkinson's disease mice (MPTP); assay: Rotarod test (endurance exercise test), Parkinson's disease mouse model; assay type: in vivo; conditions: forepaws soaked in 8% (wt %) menthol solution 10 seconds per day
# Excerpt: Laboratory mice are divided into three groups: “Control” consisting of normal mice; “MPTP” consisting of Parkinson's disease mice fed with MPTP for creation of a disease model; “MPTP+8% ME” consisting of Parkinson's disease mice which are fed with MPTP for creation of a disease model and whose forepaws are soaked in 8% menthol. For administration of menthol, two forepaws of each “MPTP+8% ME” mouse are soaked in 8% (wt %) menthol solution for 10 seconds per day from Day 1 to Day 5 and from Day 8 to Day 10, respectively. For creation of a Parkinson's disease mouse model, MPTP (daily dosage: 10 mg/kg) is injected into “MPTP” and “MPTP+8% ME” mice through the intraperitoneal (I.P.) injection on three consecutive days from Day 3 to Day 5. By Day 10, the endurance exercise test, the dopamine assay and the immunohistochemical staining are conducted for any improvement in the symptom of Parkinson's disease due to menthol. The rotarod test is a performance test in which a rodent keeps running on a self-accelerated rotating rod activated from 4 rpm (initial rotation rate) to 40 rpm (maximum and constant rotation rate in five minutes) on Day 1 (Day 10) for estimation of the retention time of the rodent on the rotating rod (FIG. 1B). As shown in the ordinate of FIG. 1B, “A latency to fall” denotes the difference between the retention time on Day 10 and the retention time on Day 1.
# [2] = system: Parkinson's disease mice (MPTP); assay: Immunohistochemical (IHC) staining of TH in substantia nigra; assay type: in vivo, mouse; conditions: forepaws soaked in 8% menthol
# Excerpt: Laboratory mice are divided into three groups: “Control” consisting of normal mice; “MPTP” consisting of Parkinson's disease mice fed with MPTP for creation of a disease model; “MPTP+8% ME” consisting of Parkinson's disease mice which are fed with MPTP for creation of a disease model and whose forepaws are soaked in 8% menthol. For administration of menthol, two forepaws of each “MPTP+8% ME” mouse are soaked in 8% (wt %) menthol solution for 10 seconds per day from Day 1 to Day 5 and from Day 8 to Day 10, respectively. For creation of a Parkinson's disease mouse model, MPTP (daily dosage: 10 mg/kg) is injected into “MPTP” and “MPTP+8% ME” mice through the intraperitoneal (I.P.) injection on three consecutive days from Day 3 to Day 5. By Day 10, the endurance exercise test, the dopamine assay and the immunohistochemical staining are conducted for any improvement in the symptom of Parkinson's disease due to menthol. The level of TH in a mouse's substantia nigra is tested through IHC staining (FIG. 1D). […] A mouse's nerve cells containing TH for generation of dopamine could be damaged due to Parkinson's disease.
# [3] = system: ischemic stroke mice (MCAO); assay: Rotarod test, ischemic stroke mouse model; assay type: in vivo
# Excerpt: Laboratory mice are divided into four groups: “Control” consisting of mice processed through MCAO for the ischemic stroke; “Water” consisting of mice which are processed for the ischemic stroke through MCAO and whose limbs are soaked in water; “MCAO+8% ME” consisting of mice which are processed for the ischemic stroke through MCAO and whose limbs are soaked in 8% menthol; “MCAO+16% ME” consisting of mice which are processed for the ischemic stroke through MCAO and whose limbs are soaked in 16% menthol. In Embodiment 2, menthol is prepared with 95% ethanol. Referring to the experiment schedule in FIG. 2A, mice are sacrificed on Day 7 for following analyses. Mice are processed for the ischemic stroke through MCAO on Day 0 and administrated with menthol once per day from Day 0 to Day 6. On the day of processing mice through MCAO, the limbs of a mouse resting 20 minutes after the operation are soaked in menthol for one minute; a mouse's limbs are soaked in menthol for 15 seconds only from Day 2 to Day 6; comparatively, a Water mouse's limbs are soaked in water. The sensorimotor nerve function test is conducted for mice one day before MCAO processing (i.e., pre-MCAO) and 1, 3 and 6 days after MCAO processing; the cerebral infarction volume is measured for checking any improvement in the stroke due to menthol on Day 7 after MCAO processing. In the rotarod test, a mouse is placed on a self-accelerated rotating rod (rotation rate from 4 to 40 rpm) on Day 3 and Day 6 for measuring the retention time (FIG. 2B-1 and FIG. 2B-2) and comparing test results with those of “pre-MCAO”. Mice in each group are tested three times. The test results are analyzed with the one-way ANOVA for further reviews through the multiple comparison analysis (Dunnett's method) and statistics of between-group variances (*p<0.05). The asterisk (*) means a significant difference between “Control” and “Water” or “MCAO+8% ME” (*p<0.05; **p<0.01). […] As shown in FIGS. 4B-1 and 4B-2, the test results are analyzed with the one-way ANOVA for further reviews through the multiple comparison analysis (Duncan's method) and statistics of between-group variances (*p<0.05; *: comparison with the “Water” group; comparison with the “16% ME” group; comparison with the “8% ME” group). […]
# [4] = system: ischemic stroke mice (MCAO); assay: Adhesive removal test, ischemic stroke mouse model; assay type: in vivo
# Excerpt: Laboratory mice are divided into four groups: “Control” consisting of mice processed through MCAO for the ischemic stroke; “Water” consisting of mice which are processed for the ischemic stroke through MCAO and whose limbs are soaked in water; “MCAO+8% ME” consisting of mice which are processed for the ischemic stroke through MCAO and whose limbs are soaked in 8% menthol; “MCAO+16% ME” consisting of mice which are processed for the ischemic stroke through MCAO and whose limbs are soaked in 16% menthol. In Embodiment 2, menthol is prepared with 95% ethanol. Referring to the experiment schedule in FIG. 2A, mice are sacrificed on Day 7 for following analyses. Mice are processed for the ischemic stroke through MCAO on Day 0 and administrated with menthol once per day from Day 0 to Day 6. On the day of processing mice through MCAO, the limbs of a mouse resting 20 minutes after the operation are soaked in menthol for one minute; a mouse's limbs are soaked in menthol for 15 seconds only from Day 2 to Day 6; comparatively, a Water mouse's limbs are soaked in water. The sensorimotor nerve function test is conducted for mice one day before MCAO processing (i.e., pre-MCAO) and 1, 3 and 6 days after MCAO processing; the cerebral infarction volume is measured for checking any improvement in the stroke due to menthol on Day 7 after MCAO processing. The adhesive removal test is conducted on Day 1, 3 and 6 and the test results are compared with status at “pre-MCAO”. As shown in the experimental process, the time of a mouse finding and removing 4 (mm)×4 (mm) stickers, which have been adhered to its forepaws outside a test cage, is recorded (FIG. 2C-1, FIG. 2C-2) for statistic analysis as described in Section 2.1 (*p<0.05; **p<0.01; ***p<0.001). […] As shown in FIGS. 4B-1 and 4B-2, the test results are analyzed with the one-way ANOVA for further reviews through the multiple comparison analysis (Duncan's method) and statistics of between-group variances (*p<0.05; *: comparison with the “Water” group; comparison with the “16% ME” group; comparison with the “8% ME” group). […]
# [5] = system: ischemic stroke mice (MCAO); assay: Measurement of the cerebral infarction volume (TTC staining); assay type: in vivo, mouse
# Excerpt: Laboratory mice are divided into four groups: “Control” consisting of mice processed through MCAO for the ischemic stroke; “Water” consisting of mice which are processed for the ischemic stroke through MCAO and whose limbs are soaked in water; “MCAO+8% ME” consisting of mice which are processed for the ischemic stroke through MCAO and whose limbs are soaked in 8% menthol; “MCAO+16% ME” consisting of mice which are processed for the ischemic stroke through MCAO and whose limbs are soaked in 16% menthol. In Embodiment 2, menthol is prepared with 95% ethanol. Referring to the experiment schedule in FIG. 2A, mice are sacrificed on Day 7 for following analyses. Mice are processed for the ischemic stroke through MCAO on Day 0 and administrated with menthol once per day from Day 0 to Day 6. On the day of processing mice through MCAO, the limbs of a mouse resting 20 minutes after the operation are soaked in menthol for one minute; a mouse's limbs are soaked in menthol for 15 seconds only from Day 2 to Day 6; comparatively, a Water mouse's limbs are soaked in water. The sensorimotor nerve function test is conducted for mice one day before MCAO processing (i.e., pre-MCAO) and 1, 3 and 6 days after MCAO processing; the cerebral infarction volume is measured for checking any improvement in the stroke due to menthol on Day 7 after MCAO processing. After a mouse in each group is sacrificed through perfusion one week after MCAO processing, a specimen of the mouse's living brain is stained by TTC (FIG. 2D-2) for measurement of the cerebral infarction volume (mm^3) (FIG. 2D-1). The test results for the cerebral infarction volume are analyzed with the one-way ANOVA for further reviews through the multiple comparison analysis (Tukey's method) and statistics of between-group variances (*p<0.05). […] Laboratory mice are divided into five groups: “Water” consisting of mice which are processed for the ischemic stroke through MCAO and whose limbs are soaked in water; “8% ME” consisting of mice which are processed for the ischemic stroke through MCAO and whose limbs are soaked in 8% menthol; “16% ME” consisting of mice which are processed for the ischemic stroke through MCAO and whose limbs are soaked in 16% menthol; “Back-ME” consisting of mice which are processed for the ischemic stroke through MCAO and whose backs are soaked in menthol; “Oral-ME” consisting of mice which are processed for the ischemic stroke through MCAO and fed with menthol. […] As shown in FIGS. 4B-1 and 4B-2, the test results are analyzed with the one-way ANOVA for further reviews through the multiple comparison analysis (Duncan's method) and statistics of between-group variances (*p<0.05; *: comparison with the “Water” group; comparison with the “16% ME” group; comparison with the “8% ME” group). […]
# [6] = MCAO mice fed with oral menthol (Oral-ME)
# [7] = MCAO mice, limbs soaked in menthol (8% ME, 16% ME), topical vs oral comparison
compound,measurement,setting,value
CC1CCC(C(C)C)C(O)C1 (stereo not shown) [menthol],"retention time on a rotating rod (latency to fall, Day 10 vs Day 1)",[1],longer than the retention time on Day 1
same,level of TH in substantia nigra,[2],recovered and similar to that of Control mice
same,retention time on a rotating rod,[3]; [6],not extended effectively
same,retention time on a rotating rod,"[3]; MCAO mice, backs administered with topical menthol (Back-ME)",not extended effectively
same,retention time on a rotating rod,"[3]; MCAO mice, limbs soaked in 8% or 16% menthol once per day Day 0 to Day 6, Day 3 and Day 6",longer than the retention time performed by MCAO or Water mice
same,retention time on a rotating rod,[3]; [7],"longer than the retention time performed by Back-ME, Water or Oral-ME mice"
same,time spent in removing stickers,"[4]; limbs soaked in 8% or 16% menthol, Day 1, 3 and 6",significantly shorter than time spent by Control or Water mice
same,time spent in finding stickers,"[4]; limbs soaked in 8% or 16% menthol, Day 6, vs Water mice",significantly less time
same,time spent in finding and removing stickers,"[4]; limbs soaked in menthol (8% ME, 16% ME), vs Water, Back-ME, Oral-ME",significantly shorter than other mice
same,cerebral infarction volume,[5]; [6],unchanged
same,cerebral infarction volume,"[5]; MCAO mice, backs administered with menthol (Back-ME)",unchanged
same,cerebral infarction volume,"[5]; MCAO mice, limbs soaked in 8% or 16% menthol, Day 7, TTC staining, vs Control and Water groups",significantly decreases
same,cerebral infarction volume,[5]; [7],significantly subdued
